Entries after “also recorded” stand apart in the source; their conditions may differ.

In one data set the target is ROCK2 (Homo sapiens, UniProt O75116). Briefly: Kinase inhibition (ROCKI & ROCKII), radiometric 33P-ATP biochemical assay. The conditions noted are these: for IC50: ROCK 1 nM, 120 min at room temperature. As for the experimental part: On-target activity against ROCK was measured in a biochemical assay, using the following reagents: Base Reaction buffer; 20 mM Hepes (pH 7.5), 10 mM MgCl2, 1 mM EGTA, 0.02% Brij35, 0.02 mg/ml BSA, 0.1 mM Na3VO4, 2 mM DTT, 1% DMSO. Required cofactors are added individually to each kinase reaction. The reaction procedure first involved the preparation of a peptide substrate in a freshly prepared reaction buffer. Required cofactors were then added to the substrate solution. ROCK (1 nM final concentration) was then delivered to the substrate solution. After gentle mix, DMSO solutions of the test compounds were added to the enzyme. Substrate mix ^33P-ATP (specific activity 0.01 μCi/μl final) was then delivered into the reaction mixture to initiate the reaction. The kinase reaction was incubated for 120 min. at room temperature. Reactions were then spotted onto P81 ion exchange paper (Whatman #3698-915). Filters were washed extensively in 0.1% Phosphoric acid. A radiometric count was then performed and IC50 values were subsequently determined.
The IC50 values obtained (in accordance with the protocol set forth above) are represented as follows: “+++” means IC50 below 0.1 μM, “++” means IC50 between 0.1 μM and 1 μM; “+” means IC50 between 1 and 10 μM and “ND” means “not determined yet”.

The test system of data set [1] is MLC-T18/S19 phosphorylation. Briefly: Myosin light chain phosphorylation assay (ELISA) in A7r5 cells. In kind it is cell-based, Rat. The conditions noted are these: for EC50: Rattus norvegicus, MLC-T18/S19 phosphorylation, A7r5 cells, serum-free medium; for functional activity in the MLC phosphorylation assay (in words): FIG. 1. As for the experimental part:
Rat smooth muscle cell line A7r5 is used. The endogenous expression of ROCK esults in a constitutive phosphorylation of the regulatory myosin light chain at T18/S19. A7r5 cells were plated in DMEM supplemented with 10% FCS in multiwall cell culture plates. After serum starvation overnight, cells were incubated with compounds in serum-free medium.
Quantification of MLC-T18/S19 phosphorylation is assesses in 96 well-plates via ELISA using a phspho-MLC-T18/S19 specific antibody and a secondary detection antibody. Raw data were converted into percent substrate phosphorylation relative to high controls, which were set to 100%.
EC50 values were determined using GraphPad Prism 5.01 software using a nonlinear regression curve fit with variable hill slope.
The EC50 values obtained (in accordance with the protocols set forth above) are represented as follows: “+++” means EC50 below 0.3 μM, “++” means EC50 between 0.3 μM and 1 μM; “+” means EC50 between 1 and 10 μM and “−” means EC50>10 μM.

Data set [2] is described as follows: Stability assay in human plasma. The settings on record: 1 μM compound, LC-MS/MS, read-out: t½ human plasma. In kind it is in vitro ADME. As for the experimental part:
(§1) Compounds are incubated at a concentration of 1 μM in rat (mice or rabbit) or human plasma. Samples are taken at fixed time points and the remnant of compound is determined by LC-MS/MS after protein precipitation. Half life is expressed in minutes.

A short description of data set [3]: Stability assay in rabbit aqueous humor. In kind it is in vitro ADME. The conditions noted are these: for half-life at 1 μM: rabbit, aqueous humor, 1 μM in rabbit aqueous humor, read-out: t½ AH. As for the experimental part: Compounds are incubated at a concentration of 1 μM in rabbit aqueous humor (AH). Samples are taken at fixed time points and the remnant of compound is determined by LC-MS/MS after protein precipitation. Half life is expressed in minutes.

Data set [4] in a line: Stability in plasma, species not stated. The conditions noted are these: point C.2.1. In kind it is in vitro ADME. As for the experimental part:
as §1

Chain of ROCK2 (O75116 whole entry, species assumed): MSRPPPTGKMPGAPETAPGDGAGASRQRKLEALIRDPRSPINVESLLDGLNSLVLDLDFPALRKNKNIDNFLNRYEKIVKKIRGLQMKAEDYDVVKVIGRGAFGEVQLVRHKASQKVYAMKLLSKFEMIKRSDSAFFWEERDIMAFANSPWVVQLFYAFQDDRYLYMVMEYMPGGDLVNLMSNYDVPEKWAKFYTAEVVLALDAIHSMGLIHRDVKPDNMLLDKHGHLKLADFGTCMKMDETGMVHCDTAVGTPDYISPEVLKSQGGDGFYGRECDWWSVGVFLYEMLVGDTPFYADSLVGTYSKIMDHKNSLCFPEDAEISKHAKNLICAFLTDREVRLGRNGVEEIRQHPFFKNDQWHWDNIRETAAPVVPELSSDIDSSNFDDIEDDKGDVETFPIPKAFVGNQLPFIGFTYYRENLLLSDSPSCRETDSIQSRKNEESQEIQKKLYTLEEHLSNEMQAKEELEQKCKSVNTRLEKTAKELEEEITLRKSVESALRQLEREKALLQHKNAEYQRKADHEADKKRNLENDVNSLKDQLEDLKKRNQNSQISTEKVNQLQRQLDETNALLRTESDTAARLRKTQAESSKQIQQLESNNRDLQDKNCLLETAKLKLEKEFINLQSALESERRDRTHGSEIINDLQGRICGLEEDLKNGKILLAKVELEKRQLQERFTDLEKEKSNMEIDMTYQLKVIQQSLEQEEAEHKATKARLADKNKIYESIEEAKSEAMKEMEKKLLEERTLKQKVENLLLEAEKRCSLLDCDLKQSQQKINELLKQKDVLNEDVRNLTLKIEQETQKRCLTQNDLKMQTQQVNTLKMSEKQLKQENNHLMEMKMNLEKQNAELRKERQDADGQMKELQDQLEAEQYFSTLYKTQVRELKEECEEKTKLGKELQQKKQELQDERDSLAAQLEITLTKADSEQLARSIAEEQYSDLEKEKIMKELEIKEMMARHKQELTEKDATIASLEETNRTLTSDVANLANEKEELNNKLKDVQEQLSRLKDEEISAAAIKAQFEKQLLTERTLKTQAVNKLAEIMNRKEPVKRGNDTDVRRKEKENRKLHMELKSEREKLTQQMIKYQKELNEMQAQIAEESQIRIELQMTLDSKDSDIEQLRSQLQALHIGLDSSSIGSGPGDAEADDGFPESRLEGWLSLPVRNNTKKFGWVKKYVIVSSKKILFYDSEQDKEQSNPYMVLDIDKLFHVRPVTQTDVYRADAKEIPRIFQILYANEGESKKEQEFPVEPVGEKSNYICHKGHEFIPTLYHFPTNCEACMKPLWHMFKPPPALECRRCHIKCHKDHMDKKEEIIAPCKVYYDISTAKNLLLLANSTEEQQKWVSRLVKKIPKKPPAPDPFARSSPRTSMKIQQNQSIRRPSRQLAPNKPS

Molecule `O=C(OCCO)c1cccc(CN2CCCC(Nc3ccc4[nH]ncc4c3)C2)c1` (stereo not shown) [Compound 19] displayed an IC50 against ROCK2 of less than 100 nM. This molecule returned an EC50 in data set [1] of 300 to 1000 nM.
Turning to `COC(=O)c1cccc(CN2CCCC(Nc3cccc4cnccc34)C2)c1` (stereo not shown) [Compound 8], on ROCK2, the IC50 was 100 to 1000 nM.
The same measure, in the same setting: the result for `CCSC(=O)c1cccc(CN2CCCC(Nc3ccc4[nH]ncc4c3)C2)c1` (stereo not shown) [Compound 16] reads less than 100 nM.
With `O=C(OCC1CCCO1)c1cccc(CN2CCCC(Nc3cccc4cnccc34)C2)c1` (stereo not shown) [Compound 15], at ROCK2, the IC50 is less than 100 nM. In addition, the EC50 in data set [1] was 1000 to 10000 nM. The half-life at 1 μM in data set [2] was 5 min.
For `CCCOC(=O)Cc1cccc(CN2CCCC(Nc3ccc4[nH]ncc4c3)C2)c1` (stereo not shown) [Compound 4], the 50% inhibitory concentration (IC50) at ROCK2 was less than 100 nM.
In the case of `COC(=O)c1ccc(NC(=O)Cc2cccc(CN3CCCC(Nc4ccc5[nH]ncc5c4)C3)c2)cc1` (stereo not shown) [Compound 43], in data set [3], the half-life at 1 μM is more than 120 min.
As to `CCOC(=O)c1cccc(CN2CCC(Nc3cccc4cnccc34)C2)c1` (stereo not shown) [Compound 21], the half-maximal inhibitory concentration (IC50) on ROCK2 lay within 100 to 1000 nM.
`COC(=O)Cc1ccc(NC(=O)Cc2cccc(CN3CCCC(Nc4ccc5[nH]ncc5c4)C3)c2)cc1` (stereo not shown) [Compound 44]: at ROCK2, the IC50 was less than 100 nM. For the same molecule, in data set [2], the half-life at 1 μM was less than 5 min.
As to `COC(=O)c1cccc(NC(=O)c2cccc(CN3CCCC(Nc4cccc5cnccc45)C3)c2)c1` (stereo not shown) [Compound 30], in data set [3], the half-life at 1 μM was more than 120 min. At ROCK2, the half-inhibitory concentration (IC50) was less than 100 nM.
On to `COC(=O)Cc1cccc(NC(=O)c2cccc(CN3CCCC(Nc4cccc5cnccc45)C3)c2)c1` (stereo not shown) [Compound 31], for which the half-life at 1 μM in data set [3] is more than 120 min; in data set [2], less than 5 min.
At ROCK2, `CCCOC(=O)c1cccc(CN2CCCC(Nc3ccc4[nH]ncc4c3)C2)c1` (stereo not shown) [Compound 9] came in with an IC50 of less than 100 nM. Moreover, the EC50 in data set [1] fell in the range of 300 to 1000 nM.
As to `O=C(OCC1CC1)c1cccc(CN2CCCC(Nc3ccc4[nH]ncc4c3)C2)c1` (stereo not shown) [Compound 17], the half-life at 1 μM in data set [3] is more than 120 min. Moreover, in data set [3] (text summary of point C.2.3), the “half-life in aqueous humor compared with plasma (in words)” value was “significantly longer half-life in aqueous humor than in plasma”. Besides, the “half life in plasma (in words)” value in data set [4] was “short half life”. Moreover, the half-maximal inhibitory concentration (IC50) against ROCK2 is less than 100 nM. For the same molecule, the “inhibitory activity against ROCK (in words)” value at ROCK2 (summary of point C1.1) is listed as “strong inhibitory activity”. In data set [1], the “functional activity in the MLC phosphorylation assay (in words)” value is listed as “display functional activity” and the EC50 lay in the range of 300 to 1000 nM. Moreover, the half-life at 1 μM in data set [2] was 25 min.
In turn, `O=C(Oc1ccccc1)c1cccc(CN2CCCC(Nc3ccc4[nH]ncc4c3)C2)c1` (stereo not shown) [Compound 10] returned an IC50 against ROCK2 of less than 100 nM. The half-life at 1 μM in data set [2] was less than 5 min.
On to `COC(=O)Cc1ccc(NC(=O)c2cccc(CN3CCC(Nc4cccc5cnccc45)C3)c2)cc1` (stereo not shown) [Compound 36], for which the half-life at 1 μM in data set [3] was more than 120 min; in data set [2], 24 min. This molecule also returned an IC50 against ROCK2 of less than 100 nM.
For `O=C(OCc1ccccc1)c1cccc(CN2CCCC(Nc3cccc4cnccc34)C2)c1` (stereo not shown) [Compound 2], the half-maximal inhibitory concentration (IC50) on ROCK2 was in the range of 100 to 1000 nM. Also, in data set [2], the half-life at 1 μM is 53 min.
On the same counts, the results for `O=C(OCc1ccccc1)c1cccc(CN2CCCC(Nc3ccc4[nH]ncc4c3)C2)c1` (stereo not shown) [Compound 18] are less than 100 nM and 26 min.
With `COC(=O)c1ccc(NC(=O)c2cccc(CN3CCC(Nc4cccc5cnccc45)C3)c2)cc1` (stereo not shown) [Compound 35], in data set [3], the half-life at 1 μM is more than 120 min. At ROCK2, the IC50 is less than 100 nM.
As to `COC(=O)Cc1cccc(CN2CCCC(Nc3ccc4[nH]ncc4c3)C2)c1` (stereo not shown) [Compound 11], the IC50 on ROCK2 is less than 100 nM.
At ROCK2, `COC(=O)c1ccc(CN2CCCC(Nc3ccc4[nH]ncc4c3)C2)[nH]1` (stereo not shown) [Compound 24] gave an IC50 of less than 100 nM.
In the case of `O=C1OCC(CCNC(=O)c2cccc(CN3CCCC(Nc4ccc5[nH]ncc5c4)C3)c2)O1` (stereo not shown) [Compound 29], the half-life at 1 μM in data set [3] is more than 120 min; in data set [2], less than 5 min. The IC50 against ROCK2 is less than 100 nM.
For `O=C(OCC1CC1)c1cccc(CN2CCCC(Nc3cccc4cnccc34)C2)c1` (stereo not shown) [Compound 1], the IC50 on ROCK2 was less than 100 nM. For the same molecule, the half-life at 1 μM in data set [2] is 49 min.
At ROCK2, `CCCOC(=O)c1cccc(CN2CCCC(Nc3cccc4cnccc34)C2)c1` (stereo not shown) [Compound 13] returned an IC50 of 100 to 1000 nM.
The same measure, in the same setting: the same measure for `COC(=O)c1ccc(CN2CCCC(Nc3ccc4[nH]ncc4c3)C2)s1` (stereo not shown) [Compound 23]: less than 100 nM.
Take `COC(=O)Cc1cccc(NC(=O)Cc2cccc(CN3CCCC(Nc4ccc5[nH]ncc5c4)C3)c2)c1` (stereo not shown) [Compound 42]: the IC50 at ROCK2 was less than 100 nM. In data set [2], the half-life at 1 μM is less than 5 min.
On the same counts, the results for `O=C(Oc1ccccc1)c1cccc(CN2CCCC(Nc3cccc4cnccc34)C2)c1` (stereo not shown) [Compound 3] are 100 to 1000 nM and 19 min.
At ROCK2, `COC(=O)c1cccc(CN2CCC(Nc3cccc4cnccc34)C2)c1` (stereo not shown) [Compound 20] returned an IC50 of less than 100 nM.
Turning to `CCSC(=O)c1cccc(CN2CCCC(Nc3cccc4cnccc34)C2)c1` (stereo not shown) [Compound 6], the IC50 on ROCK2 lay in the range of 100 to 1000 nM.
As for `COC(=O)c1ccc(NC(=O)c2cccc(CN3CCCC(Nc4ccc5[nH]ncc5c4)C3)c2)cc1` (stereo not shown) [Compound 39], the half-life at 1 μM in data set [3] is more than 120 min.
Take `COC(=O)c1cccc(CN2CCCC(Nc3ccc4[nH]ncc4c3)C2)c1` (stereo not shown) [Compound 7]: the IC50 against ROCK2 was less than 100 nM. In addition, the concentration giving a half-maximal response (EC50) in data set [1] lay within 1000 to 10000 nM.
On to `O=C(O)c1cccc(CN2CCCC(Nc3ccc4[nH]ncc4c3)C2)c1` (stereo not shown) [Met1, 3-({3-[(1H-indazol-5-yl)amino]piperidin-1-yl}methyl)benzoic acid], for which, in data set [1], the “functional activity in the MLC phosphorylation assay (in words)” value was “functionally inactive compound; also recorded: devoid of functional activity” and the 50% effective concentration (EC50) is more than 10000 nM.
Consider `COC(=O)Cc1cccc(NC(=O)c2cccc(CN3CCCC(Nc4ccc5[nH]ncc5c4)C3)c2)c1` (stereo not shown) [Compound 38], for which, in data set [3], the half-life at 1 μM was more than 120 min.
For `COC(=O)Cc1ccc(NC(=O)c2cccc(CN3CCCC(Nc4ccc5[nH]ncc5c4)C3)c2)cc1` (stereo not shown) [Compound 40], the half-life at 1 μM in data set [3] is more than 120 min; in data set [2] it was 40 min.
As to `O=C(OCCO)c1cccc(CN2CCCC(Nc3cccc4cnccc34)C2)c1` (stereo not shown) [Compound 5], the 50% inhibitory concentration (IC50) against ROCK2 is less than 100 nM.
For the molecule `COC(=O)Cc1cccc(NC(=O)c2cccc(CN3CCC(Nc4cccc5cnccc45)C3)c2)c1` (stereo not shown) [Compound 33], the half-life at 1 μM is 59 min in data set [3] and less than 4 min in data set [2]. In addition, on ROCK2, the IC50 is less than 100 nM.
In the case of `COC(=O)c1cccc(NC(=O)c2cccc(CN3CCCC(Nc4ccc5[nH]ncc5c4)C3)c2)c1` (stereo not shown) [Compound 37], the half-life at 1 μM in data set [3] was more than 120 min. The molecule also came in with an IC50 against ROCK2 of less than 100 nM.
Consider `COC(=O)c1cccc(NC(=O)Cc2cccc(CN3CCCC(Nc4ccc5[nH]ncc5c4)C3)c2)c1` (stereo not shown) [Compound 41], for which the half-life at 1 μM in data set [3] is more than 120 min; in data set [2], 10 min. Further, the 50% inhibitory concentration (IC50) at ROCK2 was less than 100 nM.
Turning to `COC(=O)Cc1ccc(NC(=O)c2cccc(CN3CCCC(Nc4cccc5cnccc45)C3)c2)cc1` (stereo not shown) [Compound 34], in data set [3], the half-life at 1 μM is more than 120 min. Also, the IC50 at ROCK2 is less than 100 nM.
Consider `COC(=O)c1ccc(NC(=O)c2cccc(CN3CCCC(Nc4cccc5cnccc45)C3)c2)cc1` (stereo not shown) [Compound 25], for which the half-life at 1 μM in data set [3] was more than 120 min.
In the case of `O=C1OCC(CCNC(=O)c2cccc(CN3CCCC(Nc4cccc5cnccc45)C3)c2)O1` (stereo not shown) [Compound 27], the half-life at 1 μM in data set [3] stood at 111 min; in data set [2], 4 min. Besides, the IC50 against ROCK2 was less than 100 nM.
`COCCOC(=O)Cc1cccc(CN2CCCC(Nc3ccc4[nH]ncc4c3)C2)c1` (stereo not shown) [Compound 12]: the IC50 at ROCK2 was less than 100 nM.

The record behind these values is patent US9073905B2, “Rock inhibitors” (Amakem NV, priority 2011, dated 2015).
